Consider three compounds from paper PMC3375280 (PLoS ONE, 2012).

For experiment [1], the target named is T1, AT1 C76A/L112C/C289A mutant receptor (Rattus norvegicus, UniProt P25095, C289A/C76A/L112C).
T1 construct: expressed in transfected cells; host or cells: COS1
T1 sequence (P25095 1-359 C76A/L112C/C289A): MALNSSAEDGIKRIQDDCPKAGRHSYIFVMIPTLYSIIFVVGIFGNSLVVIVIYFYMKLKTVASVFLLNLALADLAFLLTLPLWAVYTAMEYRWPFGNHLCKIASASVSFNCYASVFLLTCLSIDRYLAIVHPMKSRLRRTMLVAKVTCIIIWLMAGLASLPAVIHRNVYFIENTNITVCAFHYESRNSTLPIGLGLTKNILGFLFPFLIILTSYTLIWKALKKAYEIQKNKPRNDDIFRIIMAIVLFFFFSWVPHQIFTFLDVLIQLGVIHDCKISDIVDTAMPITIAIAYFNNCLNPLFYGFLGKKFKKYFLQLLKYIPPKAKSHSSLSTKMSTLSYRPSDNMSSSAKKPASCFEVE
In words: substituted cysteine accessibility mapping (SCAM), C76A/L112C/C289A. Conditions: for % inhibition of 125I-[Sar1,Ile8]Ang II binding by MTSEA+ after ligand pre-incubation: C76A/L112C/C289A mutant, 1 µM ligand, comparison in words; for Cysteine accessibility at Leu112 compared to ligand (-): SCAM, 1 µM ARB, […] MTSEA+, COS1 membranes. Also on record: key to Cysteine accessibility at Leu112 compared to ligand (-): Less and More indicate that the AT1 receptor is less or more accessible to the ligand pocket, respectively; Less and More indicate that the AT1 receptor is less or more accessible to the ligand pocket, respectively; No change. The class given is binding. The text has this:
As we reported previously, the percentage (%) inhibition of ^125I-[Sar^1, Ile^8] AngII binding by methanethiosulphonate ethyl-ammonium (MTSEA^+) reagent was approximately 30% on AT1 receptor, since Cys^76 in TM2 was accessible to water within the ligand pocket. In addition, mechanical stretching increased the accessibility of Cys^289 by inducing a change in the conformation of TM7 [22]. To differentiate between single and multiple movements of one or more native cysteines, we created TM3 residues that were substituted with cysteine one at a time from […] to Phe^117 using the C76A/C289A mutant genetic background and evaluated each triple mutant for MTSEA sensitivity.
Figure 3 Changes in cysteine accessibility in COS1 cells expressing C76A/C289A mutant receptors in which the transmenbrane 3 residues from Ala^106 to Phe^117, except for position 113, were successively replaced by cysteine. 1 µM of ARBs, n=4–9, *p<0.05 vs. no treatment. #p<0.05 vs. C76A/C289A.
The SCAM method has been used to probe relative changes in the conformation of constitutively active AT1 receptor [20]–[22] and other GPCRs, [30] by validating the presence of Cys residues within the ligand pocket. We used a highly reactive, sulfhydryl-specific reaction with methanethiosulfonyl ethyl-ammonium (MTSEA^+), which reacts a billion times faster with water-exposed and ionized Cys than with lipid-exposed and un-ionized Cys. In this reaction, a positively charged sulfonylmethylammonium group is added to a water-exposed Cys. Aliquots of cell membranes are incubated with or without ARBs for 20 min in phosphate buffer at room temperature. The membranes are then diluted with same buffer and centrifuged. After washout the cell membranes, the membranes are incubated with 2.5 mM MTSEA^+ at room temperature for 2 min in HEPES buffer (pH7.4). The Membranes are then diluted with same buffer to stop the reaction and centrifuged. One hundred µl aliquots were used to assay for ^125I-[Sar^1,Ile^8]Ang II binding. The fractional inhibition is calculates 1 − [(specific binding after MTX reagent) / (specific binding without reagent)].

Experiment [2] has as its target T2, AT1 Y113F mutant receptor (Rattus norvegicus, UniProt P25095, Y113F).
T2 construct: expressed in transfected cells; host or cells: COS1
T2 sequence (P25095 1-359 Y113F): T1 sequence (P25095 1-359 C76A/L112C/C289A) with A76C, C112L, Y113F, A289C
The experiment can be described thus: competition binding, Y113F mutant. Conditions: for Kd ratio relative to WT (in parentheses): Y113F / WT; for Kd: Y113F, COS1 membranes, read-out: Binding affinity (Kd). The protocol: (§1) The Kd and Bmax values of receptor binding were determined by ^125I-[Sar^1, Ile^8] […] Membranes expressing the WT or mutant AT1 receptors were incubated with 100 pM ^125I-[Sar^1, Ile^8] […] The binding reaction was terminated by filtering the incubation mixture through Whatman GF/C glass filters, and the residues were extensively washed further with binding buffer. The bound ligand fraction was determined from the counts per minute (cpm) remaining on the membrane. Binding kinetics values were determined as previously described.

For experiment [3], the target named is T3, AT1 C76A/A106C/C289A mutant receptor (Rattus norvegicus, UniProt P25095, A106C/C289A/C76A).
T3 construct: expressed in transfected cells; host or cells: COS1
T3 sequence (P25095 1-359 C76A/A106C/C289A): T1 sequence (P25095 1-359 C76A/L112C/C289A) with A106C, C112L
In words: competition binding, C76A/A106C/C289A mutant. The note with it: for Kd ratio relative to WT (in parentheses): C76A/A106C/C289A / WT; for Kd: C76A/A106C/C289A, COS1 membranes, read-out: Binding affinity (Kd). The protocol: as §1

Experiment [4] deals with T4, AT1 C76A/S107C/C289A mutant receptor (Rattus norvegicus, UniProt P25095, C289A/C76A/S107C).
T4 construct: expressed in transfected cells; host or cells: COS1
T4 sequence (P25095 1-359 C76A/S107C/C289A): T1 sequence (P25095 1-359 C76A/L112C/C289A) with S107C, C112L
The experiment can be described thus: competition binding, C76A/S107C/C289A mutant. Conditions: for Kd ratio relative to WT (in parentheses): C76A/S107C/C289A / WT; for Kd: C76A/S107C/C289A, COS1 membranes, read-out: Binding affinity (Kd). The protocol:
as §1

Each structure is given as a SMILES string. Substitutions are numbered along the chain they refer to.

For orientation: Kd means the concentration at which binding is half-saturated. As to `CCCc1nc(C(C)(C)O)c(C(N)=O)n1Cc1ccc(-c2cc(Cc3ccc(O)cc3)ccc2-c2nnn[nH]2)cc1` [R794847], in experiment [1], the “% inhibition of 125I-[Sar1,Ile8]Ang II binding by MTSEA+ after ligand pre-incubation” value (“% inhibition” below) was “significantly lower than those with olmesartan and R239470”. The “Kd ratio relative to WT (in parentheses)” value in experiment [2] stood at 8.1 fold; in experiment [3], 4.0 fold; in experiment [4], 2.1 fold. The Kd in experiment [2] is 388 ± 54 nM; in experiment [3], 193 ± 73 nM; in experiment [4], 102 ± 19 nM.

On to `CCCc1nc(C(C)(C)O)c(C(=O)O)n1Cc1ccc(-c2ccccc2-c2nnn[nH]2)cc1` [Olmesartan, olmesartan, reference compound], for which the “% inhibition” value in experiment [1] is on record as “significantly lower than that with ligand (-)”. Besides, the “Cysteine accessibility at Leu112 compared to ligand (-)” value is recorded as “Less” in experiment [1] and “less accessibility” in experiment [1] (listed as olmesartan). Besides, the “Kd ratio relative to WT (in parentheses)” value is reported as 23 fold in experiment [2], greater than 10 fold in experiment [2] (listed as olmesartan), 3.9 fold in experiment [3] and 2.7 fold in experiment [4]. Further, the dissociation constant (Kd) in experiment [2] was 52 ± 7 nM; in experiment [3], 8.9 ± 4 nM; in experiment [4] it was 6.2 ± 3.2 nM.

In the case of `CCCc1nc(C(C)(C)O)c(C(N)=O)n1Cc1ccc(-c2ccccc2-c2nnn[nH]2)cc1` [R239470], the “% inhibition” value in experiment [1] is recorded as “significantly lower than that with ligand (-)”. The “Kd ratio relative to WT (in parentheses)” value was 21 fold in experiment [2], 5.1 fold in experiment [3] and 2.3 fold in experiment [4]. In addition, the Kd in experiment [2] worked out at 17 ± 3 nM; in experiment [3], 4.1 ± 1 nM; in experiment [4], 1.8 ± 0.4 nM.
